Test results taken from patent US4365989A, “2-Thiocyanomethylthio-4,4-dialkyl-5-substituted-thiazoline fungicides” (Chevron Research Company, priority 1982, dated 1982).

Tests used:
[1] = system: Alternaria solani conidia; assay: Tomato Early Blight control; format: in vivo; conditions: 250 ppm; tomato Bonny Best seedlings
Description: Compounds of the invention were tested for the control of the tomato Early Blight organism, Alternaria solani conidia. Tomato (variety Bonny Best) seedlings of 6 to 7 weeks old were used. The tomato plants were sprayed with a 250 ppm solution of the test compound in an acetone-and-water solution containing a small amount of a nonionic emulsifier. The sprayed plants were inoculated one day later with the organism, placed in the environmental chamber and incubated at 66° to 68° F. and 100% relative humidity for 24 hours. Following the incubation, the plants were maintained in a greenhouse for about 12 days. Percent diseases control was based on the percent disease development on untreated check plants.

[2] = system: Pigweed (Amaranthus retraflexus); assay: Pre-emergent herbicidal test, Pigweed; format: in vivo; conditions: 504 h, pre-emergence, 33 micrograms/cm^2, 3 weeks
Description: (§1) An acetone solution of the test compound was prepared by mixing 750 mg of the compound, 220 mg of a nonionic surfactant and 25 ml of acetone. This solution was added to approximately 125 ml of water containing 156 mg of surfactant.
(§2) Seeds of the test vegetation were planted in a pot of […] and the test solution was sprayed uniformly onto the soil surface at a dose of 33 micrograms/cm^2. The pot was watered and placed in a greenhouse. […] At the end of this period, the herbicidal effectiveness of the compound was rated based on the physiological observations. A 0-to-100 scale was used, 0 representing no phytotoxicity, 100 representing complete kill.

[3] = system: Rhizoctonia solani; assay: Mycelial inhibition, Rhizoctonia; format: cell-based; conditions: 24 hours, relative to standard DIFOLATAN, read-out: Mycelial inhibition, % Standard, Rhizoc.
Description: A number of the compounds of the present invention were evaluated for in-vitro fungicidal effectiveness by means of a mycelial inhibition test. This test is designed to measure the fungitoxic activity of fungicidal chemicals in terms of their degree of inhibition of mycelium growth. Each compound to be tested was dissolved in acetone to 500 ppm concentration. Paper strips were infused with the particular mycelium growth by covering the paper with a potato dextrose broth culture of mycelial suspension. The papers were then placed on potato dextrose agar plates and sprayed by means of a microsprayer with the fungicidal solution. The treated paper strips were incubated at 25° C. and the data is taken after 24 hours. Fungicidal activities are measured by a zone of inhibited mycelial growth from the center of the paper strip. The effectiveness of the compounds tested for fungicidal activity is reported in Table IIa for those compounds which were effective in inhibiting mycelial growth. The activity is reported in terms of [formula]

[4] = system: Lambsquarter (Chenopodium album); assay: Pre-emergent herbicidal test, Lambsquarter; format: in vivo; conditions: 504 h, pre-emergence, 33 micrograms/cm^2, 3 weeks, read-out: Herbicidal Activity Pre-Emergence % Control L'Qtr.
Description: as §1, §2

[5] = system: Elodea canadensis; assay: Aquatic weeds control, Elodea; format: in vivo; conditions: 7 to 10 days, read-out: Algicidal Activity % Control Elodea
Description: (§3) Representative compounds of the invention were tested as aquatic herbicides and algicides by the following method. The weed test species were Lemna minor, Elodea canadensis and the algae used was Spirulina maxima.
(§4) An acetone solution of the test compound and a small amount of an alkylarylpolyoxyethylene glycol-containing surfactant was prepared. This solution was mixed with a nutrient solution in quantity sufficient to give a concentration of 2 ppm. Eight oz. plastic cups were filled with 150 ml of this solution. A sample of the test, Lemna and Elodea, was added together to each cup. Forty ml of Spirulina culture with the 2 ppm treatment was placed in 11/2 oz plastic cups (#4 glass vials used after June 9, 1980). The containers were then placed in an illuminated environment maintained at a temperature of about 20° C. for incubation. The containers were observed periodically for growth (as compared to an untreated check). The effectiveness of the test compound was determined based on a final observation of growth after 7 to 10 days. The results of the test on a 0-to-100 basis--0 indicating no effectiveness and 100 indicating complete effectiveness--are reported in Table IV.

[6] = system: Lemna minor; assay: Aquatic weeds control, Lemna; format: in vivo; conditions: 7 to 10 days, read-out: Algicidal Activity % Control Lemna
Description: as §3, §4

[7] = system: Crabgrass (Digitaria sanguinalis); assay: Post-emergent herbicidal test, Crabgrass; format: in vivo; conditions: 504 h, post-emergence, 33 micrograms/cm^2, 3 weeks
[8] = system: Plasmopara viticola; assay: Grape Downy Mildew control, detached grape leaves; format: in vivo; conditions: in Vitis vinifera, Vitis vinifera Emperor detached leaves, read-out: % Control Grape D.M.
Description: The compounds of the invention were tested for the control of the grape downy mildew organism Plasmopara viticola. Detached leaves, between 70 and 85 mm in diameter, of 7-week old Vitis vinifera cultivar Emperor grape seedlings were used as hosts. The leaves were sprayed with a 250 ppm solution of the test compound in acetone. The sprayed leaves were dried, inoculated with a spore suspension of the organism, placed in a humid environmental chamber and incubated at 66° to 68° F. and about 100% relative humidity. After incubation for two days, the plants were then held in a greenhouse seven to nine days; then the amount of disease control was determined. The percent disease control provided by a given gest compound was based on the percent disease reduction relative to untreated check plants.

[9] = system: Lambsquarter (Chenopodium album); assay: Post-emergent herbicidal test, Lambsquarter; format: in vivo; conditions: 504 h, post-emergence, 33 micrograms/cm^2, 3 weeks, read-out: Herbicidal Activity Post-Emergence % Control L'Qtr.
[10] = system: Soybean; assay: Post-emergent herbicidal test, Soybean; format: in vivo; conditions: Glycine max, 504 h; post-emergence; 33 micrograms/cm^2; 3 weeks; read-out: Herbicidal Activity Post-Emergence % Control Soybean
[11] = system: Phytophthora infestans; assay: whole plant or invertebrate; format: in vivo; conditions: in Solanum lycopersicum, read-out: % Control Tom. L. Bl.
[12] = system: Watergrass (Ethinochloa crusgalli); assay: Post-emergent herbicidal test, Watergrass; format: in vivo; conditions: 504 h; post-emergence; 33 micrograms/cm^2; 3 weeks

| Structure (SMILES) | % Control Tom. E. Bl. [1] | pest or weed control at 33 µg/cm2 [2] | inhibition at 500 ppm [3] | pest or weed control at 33 µg/cm2 [4] | activity at 2 ppm [5] | activity at 2 ppm [6] | pest or weed control at 33 µg/cm2 [7] | pest or weed control at 250 ppm [8] | pest or weed control at 33 µg/cm2 [9] | plant injury at 33 µg/cm2 [10] | pest or weed control at 250 ppm [11] | pest or weed control at 33 µg/cm2 [12] |
| --- | --- | --- | --- | --- | --- | --- | --- | --- | --- | --- | --- | --- |
| C=C1SC(SCSC#N)=NC12CCCCC2 [Compound 8] | 0% | 0% | 71% | 0% | 80% | 60% | 20% | 100% | 40% | 33% | 29% | 38% |
| C=C1SC(SCSC#N)=NC1(C)C [Compound 7, 2-Thiocyanomethylthio-4,4-dimethyl-5-methylenethiazoline] | 71% | 50% | 39% | 60% | 85% | 90% | 35% | 50% | 55% | 0% | 75% | 22% |
| CC1(C)N=C(SCSC#N)SC1=CSc1ccc(Cl)cc1 [Compound 1, 2-thiocyanomethylthio-4,4-dimethyl-5-(4-chlorophenylthio)methylenethiazoline] | 47% | 0% | 0% | 0% | 0% | 0% | 0% | 100% | 0% | 0% | 21% | 0% |
| CC1(C)N=C(SCSC#N)SC1=C(Cl)Cl [Compound 2, 2-thiocyanomethylthio-4,4-dimethyl-5-dichloromethylenethiazoline] | 67% | 0% | 71% | 0% | 70% | 50% | 25% | 88% | 40% | 10% | 0% | 45% |
| CCC1(CC)N=C(SCSC#N)SC1=CBr [Compound 5, 2-thiocyanomethylthio-4,4-diethyl-5-bromo-methylenethiazoline] | 0% | 0% | 82% | 0% | 55% | 0% | 30% | 100% | 33% | 20% | 20% | 58% |
| C=C1SC(SCSC#N)=NC1(CC)CC [Compound 6, 2-thiocyanomethylthio-4,4-diethyl-5-methylenethiazoline] | 0% | 73% | 89% | 73% | 0% | 0% | 45% | 0% | 55% | 15% | 0% | 35% |
